In brackets after ≈: the same amount, converted by molar mass. Where two headings read alike, the source gives them in different places.
Legend:
M. hyopneumoniae JF 435 = experiment: MIC against Mycoplasma in vitro (Friis broth with agarose); assay type: cell-based; conditions: Mesomycoplasma hyopneumoniae, JF435, 144 h
M. hyopneumoniae UCD 1 = experiment: as above; assay type: cell-based; conditions: Mesomycoplasma hyopneumoniae, UCD1, 144 h
M. hyopneumoniae TAM 6N = experiment: as above; assay type: cell-based; conditions: Mesomycoplasma hyopneumoniae, TAM6N, 144 h
M. hyorhinis ATCC 23234 = experiment: as above; assay type: cell-based; conditions: Mesomycoplasma hyorhinis, ATCC23234, 144 h
M. hyorhinis ATCC 25021 = experiment: as above; assay type: cell-based; conditions: Mesomycoplasma hyorhinis, ATCC25021, 144 h
[1] = test system: M. hyosynoviae ATCC 25591; experiment: as above; assay type: cell-based; conditions: 144 h
M. bovis NCTC 10131 = experiment: microbe, parasite or virus in culture; assay type: cell-based; conditions: NCTC10131, 144 h
[2] = test system: M. bovigenitalium ATCC 14173; experiment: MIC against Mycoplasma in vitro (Friis broth with agarose); assay type: cell-based; conditions: 144 h
M. dispar NCTC 10125 = experiment: as above; assay type: cell-based; conditions: 144 h
M. gallisepticum S6 = experiment: as above; assay type: cell-based; conditions: Mycoplasmoides gallisepticum
M. pneumoniae ATCC 15492 = experiment: as above; assay type: cell-based; conditions: Mycoplasmoides pneumoniae, ATCC15492, 144 h
E. coli NCTC 10418 = experiment: MIC against veterinary bacteria in vitro (Diagnostic Sensitivity Test Agar); conditions: Escherichia coli, NCTC10418, 18 h
Procedure: (§1) The activity of the normonyl derivatives of the Examples against various veterinarily important bacteria, was assayed in vitro using two-fold serial dilutions in Diagnostic Sensitivity Test Agar inoculated with 10^4 organisms.

E. coli E1 = experiment: as above; conditions: Escherichia coli, E1, 18 h
Procedure: as §1

S. dublin S7 = experiment: as above; conditions: Salmonella enterica, S7, 18 h
Procedure: as §1

S. typhimurium S18 = experiment: as above; conditions: Salmonella enterica, 18 h
Procedure: as §1

Bord. bronchiseptica B08 = experiment: as above; conditions: Bordetella bronchiseptica, B08, 18 h
Procedure: as §1

Bord. bronchiseptica B09 = experiment: as above; conditions: Bordetella bronchiseptica, B09, 18 h
Procedure: as §1

Past. multocida PA1 = experiment: as above; conditions: Pasteurella multocida, PA1, 18 h
Procedure: as §1

Past. multocida PA2 = experiment: as above; conditions: Pasteurella multocida, PA2, 18 h
Procedure: as §1

Past. haemolytica PA5 = experiment: as above; conditions: Mannheimia haemolytica, PA5, 18 h
Procedure: as §1

[3] = test system: Erysipelothrix rhusiopathiae NCTC 8163; experiment: as above; conditions: NCTC8163, 18 h
Procedure: as §1

[4] = test system: Corynebacterium pyogenes CY1; experiment: as above; conditions: CY1, 18 h
Procedure: as §1

[5] = test system: Staph. aureus B4 (pen. resistant); experiment: as above; conditions: Staphylococcus aureus, 18 h
Procedure: as §1

[6] = test system: Staph. aureus 152 (pen. sens); experiment: as above; conditions: Staphylococcus aureus, 18 h
Procedure: as §1

Staph. aureus Oxford = experiment: as above; conditions: Staphylococcus aureus, 18 h
Procedure: as §1

[7] = test system: Strep. suis (group D) SPS11; experiment: as above; conditions: Streptococcus suis, 18 h
Procedure: as §1

Strep. uberis SPU1 = experiment: as above; conditions: Streptococcus uberis, SPU1, 18 h
Procedure: as §1

Strep. agalactiae SPA1 = experiment: as above; conditions: Streptococcus agalactiae, SPA1, 18 h
Procedure: as §1

M. hyopneumoniae MS 16 = experiment: MIC against Mycoplasma in vitro (Friis broth with agarose); assay type: cell-based; conditions: Mesomycoplasma hyopneumoniae, MS16, 144 h
[8] = test system: M. hyopneumoniae ATCC 25095; experiment: as above; assay type: cell-based; conditions: Mesomycoplasma hyopneumoniae, ATCC25095, 144 h
[9] = M. hyopneumoniae JF 435, 6 days at 37° C, read-out: MIC
[10] = M. hyopneumoniae UCD 1, 6 days at 37° C, read-out: MIC
[11] = M. hyopneumoniae TAM 6N, 6 days at 37° C, read-out: MIC
[12] = M. hyorhinis ATCC 23234, 6 days at 37° C, read-out: MIC
[13] = M. hyorhinis ATCC 25021, 6 days at 37° C, read-out: MIC
[14] = M. hyosynoviae ATCC 25591, 6 days at 37° C, read-out: MIC
[15] = 144 h, M. gallisepticum S6, 6 days at 37° C, read-out: MIC
[16] = M. pneumoniae ATCC 15492, 6 days at 37° C, read-out: MIC

| Compound | MIC (M. bovis NCTC 10131) | MIC [2] | MIC (M. dispar NCTC 10125) | MIC (E. coli NCTC 10418) | MIC (E. coli E1) | MIC (S. dublin S7) | MIC (S. typhimurium S18) | MIC (Bord. bronchiseptica B08) | MIC (Bord. bronchiseptica B09) | MIC (Past. multocida PA1) | MIC (Past. multocida PA2) | MIC (Past. haemolytica PA5) | MIC [3] | MIC [4] | MIC [5] | MIC [6] | MIC (Staph. aureus Oxford) | MIC [7] | MIC (Strep. uberis SPU1) | MIC (Strep. agalactiae SPA1) | other results |
| --- | --- | --- | --- | --- | --- | --- | --- | --- | --- | --- | --- | --- | --- | --- | --- | --- | --- | --- | --- | --- | --- |
| CC(=Cc1nnc(-c2ccncc2)o1)CC1OCC(CC2OC2C(C)C(C)O)C(O)C1O (centres unmarked) [Example 7, 2-(1-Normon-2-yl)-5-(4-pyridyl)-1,3,4-oxadiazole A] | 0.025 µg/mL (≈ 0.0561 µM) | 0.25 µg/mL (≈ 0.561 µM) | 0.25 µg/mL (≈ 0.561 µM) | > 80 µg/mL | > 80 µg/mL | > 80 µg/mL | > 80 µg/mL | > 80 µg/mL | 20 µg/mL (≈ 44.9 µM) | 2.5 µg/mL (≈ 5.61 µM) | 0.625 µg/mL (≈ 1.4 µM) | 20 µg/mL (≈ 44.9 µM) | 80 µg/mL (≈ 180 µM) | > 80 µg/mL | 10 µg/mL (≈ 22.4 µM) | 10 µg/mL (≈ 22.4 µM) | > 80 µg/mL | > 80 µg/mL | 2.5 µg/mL (≈ 5.61 µM) | 20 µg/mL (≈ 44.9 µM) | MIC (M. hyopneumoniae JF 435; [9]): 2.5 µg/mL (≈ 5.61 µM); MIC (M. hyopneumoniae UCD 1; [10]): 1 µg/mL (≈ 2.24 µM); MIC (M. hyopneumoniae TAM 6N; [11]): 2.5 µg/mL (≈ 5.61 µM); MIC (M. hyorhinis ATCC 23234; [12]): 0.5 µg/mL (≈ 1.12 µM); MIC (M. hyorhinis ATCC 25021; [13]): 0.5 µg/mL (≈ 1.12 µM); MIC [1, 14]: 0.5 µg/mL (≈ 1.12 µM); MIC (M. gallisepticum S6; S6, 144 h): > 10 µg/mL; MIC (M. pneumoniae ATCC 15492): > 10 µg/mL |
| CC(=CC(=O)NN)CC1OCC(CC2OC2C(C)C(C)O)C(O)C1O (centres unmarked) [Example 9, Monohydrazide A] | 0.5 µg/mL (≈ 1.39 µM) | 0.5 µg/mL (≈ 1.39 µM) | 2.5 µg/mL (≈ 6.97 µM) | > 80 µg/mL | > 80 µg/mL | > 80 µg/mL | > 80 µg/mL | > 80 µg/mL | > 80 µg/mL | 40 µg/mL (≈ 112 µM) | 80 µg/mL (≈ 223 µM) | 40 µg/mL (≈ 112 µM) | > 80 µg/mL | > 80 µg/mL | 80 µg/mL (≈ 223 µM) | 80 µg/mL (≈ 223 µM) | – | > 80 µg/mL | 80 µg/mL (≈ 223 µM) | > 80 µg/mL | MIC (M. hyopneumoniae JF 435): 10 µg/mL (≈ 27.9 µM); MIC (M. hyopneumoniae MS 16): 5 µg/mL (≈ 13.9 µM); MIC (M. hyopneumoniae UCD 1): 10 µg/mL (≈ 27.9 µM); MIC (M. hyopneumoniae TAM 6N): 10 µg/mL (≈ 27.9 µM); MIC [8]: 5 µg/mL (≈ 13.9 µM); MIC (M. hyorhinis ATCC 23234): > 10 µg/mL; MIC (M. hyorhinis ATCC 25021): 10 µg/mL (≈ 27.9 µM); MIC [1]: 10 µg/mL (≈ 27.9 µM); MIC (M. gallisepticum S6; S6, 144 h): > 10 µg/mL; MIC (M. pneumoniae ATCC 15492): > 10 µg/mL |
| CC(=Cc1nnc(-c2ccco2)o1)CC1OCC(CC2OC2C(C)C(C)O)C(O)C1O (centres unmarked) [Example 8, 2-(2-Furyl)-5-(1-normon-2-yl)-1,3,4-oxadiazole A] | 0.1 µg/mL (≈ 0.23 µM) | – | – | > 80 µg/mL | > 80 µg/mL | > 80 µg/mL | > 80 µg/mL | > 80 µg/mL | 80 µg/mL (≈ 184 µM) | 1.25 µg/mL (≈ 2.88 µM) | 0.625 µg/mL (≈ 1.44 µM) | 40 µg/mL (≈ 92.1 µM) | > 80 µg/mL | > 80 µg/mL | 20 µg/mL (≈ 46 µM) | 40 µg/mL (≈ 92.1 µM) | 80 µg/mL (≈ 184 µM) | > 80 µg/mL | 10 µg/mL (≈ 23 µM) | > 80 µg/mL | MIC (M. hyopneumoniae JF 435; [9]): 10 µg/mL (≈ 23 µM); MIC (M. hyopneumoniae UCD 1; [10]): 5 µg/mL (≈ 11.5 µM); MIC (M. hyopneumoniae TAM 6N; [11]): 10 µg/mL (≈ 23 µM); MIC (M. hyorhinis ATCC 23234; [12]): 2.5 µg/mL (≈ 5.75 µM); MIC (M. hyorhinis ATCC 25021; [13]): 2.5 µg/mL (≈ 5.75 µM); MIC [1, 14]: 2.5 µg/mL (≈ 5.75 µM); MIC ([2]; M. bovigenitalium ATCC 14173, 6 days at 37° C, read-out: MIC): 0.5 µg/mL (≈ 1.15 µM); MIC (M. dispar NCTC 10125; M. dispar NCTC 10125, 6 days at 37° C, read-out: MIC): 1 µg/mL (≈ 2.3 µM); MIC (M. gallisepticum S6; [15]): > 10 µg/mL; MIC (M. pneumoniae ATCC 15492; [16]): > 10 µg/mL |
| CC(=Cc1nnc(-c2ccc(N(C)C)cc2)o1)CC1OCC(CC2OC2C(C)C(C)O)C(O)C1O (centres unmarked) [Example 10, 2-(4-Dimethylaminophenyl)-5-(1-normon-2-yl)-1,3,4-oxadiazole A] | 0.25 µg/mL (≈ 0.513 µM) | 1 µg/mL (≈ 2.05 µM) | 0.5 µg/mL (≈ 1.03 µM) | > 80 µg/mL | > 80 µg/mL | > 80 µg/mL | > 80 µg/mL | > 80 µg/mL | > 80 µg/mL | 40 µg/mL (≈ 82 µM) | 5 µg/mL (≈ 10.3 µM) | 40 µg/mL (≈ 82 µM) | 40 µg/mL (≈ 82 µM) | > 80 µg/mL | 5 µg/mL (≈ 10.3 µM) | 5 µg/mL (≈ 10.3 µM) | 20 µg/mL (≈ 41 µM) | > 80 µg/mL | 20 µg/mL (≈ 41 µM) | > 80 µg/mL | MIC (M. hyopneumoniae JF 435): 1 µg/mL (≈ 2.05 µM); MIC (M. hyopneumoniae UCD 1): 2.5 µg/mL (≈ 5.13 µM); MIC (M. hyopneumoniae TAM 6N): 5 µg/mL (≈ 10.3 µM); MIC (M. hyorhinis ATCC 23234): 1 µg/mL (≈ 2.05 µM); MIC (M. hyorhinis ATCC 25021): 1 µg/mL (≈ 2.05 µM); MIC [1]: 2.5 µg/mL (≈ 5.13 µM); MIC (M. gallisepticum S6; [15]): > 10 µg/mL; MIC (M. pneumoniae ATCC 15492; [16]): 10 µg/mL (≈ 20.5 µM) |
